From publication PMC10879502, “Linking ATP and allosteric sites to achieve superadditive binding with bivalent EGFR kinase inhibitors” (Communications Chemistry, 2024)
“And” between values parts separate entries of the source, which are not always exact repeats. Equal entries are not always repeated. Where two headings read alike, the source gives them in different places.

What was measured:
[1] = biological target: T1, EGFR L858R/T790M (LRTM) kinase domain (Homo sapiens, UniProt P00533, L858R/T790M); test: HTRF KinEASE-TK kinase activity assay; type: biochemical; details: for Linking coefficient E: LRTM IC50, upper limit; for activity: LRTM, read-out: percent inhibition
T1 construct: The EGFR kinase domain (residues 696–1022) was cloned into pTriEx; 6xHis (N, cleaved yes); GST (N, cleaved yes); made in house; host or cells: SF9 insect cells, baculovirus

MERTK = biological target: T2, MERTK (Homo sapiens, UniProt Q12866); test: KINOMEscan; type: binding; details: 1 μM
T2 construct: purchased Eurofins DiscoverX Corporation
T2 sequence (Q12866 21-999): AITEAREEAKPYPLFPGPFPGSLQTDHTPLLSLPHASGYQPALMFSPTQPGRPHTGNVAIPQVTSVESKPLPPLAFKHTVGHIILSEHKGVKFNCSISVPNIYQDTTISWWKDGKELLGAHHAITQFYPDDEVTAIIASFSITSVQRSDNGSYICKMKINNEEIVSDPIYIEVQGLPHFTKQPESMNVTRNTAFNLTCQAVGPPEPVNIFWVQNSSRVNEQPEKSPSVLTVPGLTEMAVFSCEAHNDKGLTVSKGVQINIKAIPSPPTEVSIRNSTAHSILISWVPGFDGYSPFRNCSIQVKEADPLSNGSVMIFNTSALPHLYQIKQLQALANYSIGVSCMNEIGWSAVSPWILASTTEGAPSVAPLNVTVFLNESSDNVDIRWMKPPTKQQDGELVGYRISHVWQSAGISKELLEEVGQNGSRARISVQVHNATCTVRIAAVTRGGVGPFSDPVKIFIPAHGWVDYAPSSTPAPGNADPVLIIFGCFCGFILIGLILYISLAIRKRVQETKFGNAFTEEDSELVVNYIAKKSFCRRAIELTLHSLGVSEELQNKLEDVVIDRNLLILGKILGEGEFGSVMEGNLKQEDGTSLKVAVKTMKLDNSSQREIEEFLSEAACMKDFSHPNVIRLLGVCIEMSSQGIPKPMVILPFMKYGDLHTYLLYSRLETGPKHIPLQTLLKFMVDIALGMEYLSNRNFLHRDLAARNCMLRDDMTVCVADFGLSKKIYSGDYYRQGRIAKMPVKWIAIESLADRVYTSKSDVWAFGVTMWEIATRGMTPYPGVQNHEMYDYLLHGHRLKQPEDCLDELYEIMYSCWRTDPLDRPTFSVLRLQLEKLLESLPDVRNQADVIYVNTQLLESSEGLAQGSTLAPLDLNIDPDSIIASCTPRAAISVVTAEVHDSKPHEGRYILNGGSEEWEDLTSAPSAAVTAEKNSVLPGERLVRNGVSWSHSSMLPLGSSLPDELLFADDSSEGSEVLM

RET(M918T) = RET(M918T) (Homo sapiens, UniProt P07949, M918T); test: KINOMEscan; type: binding; details: 1 μM
CDK4-cyclinD3 = CDK4-cyclinD3 (Homo sapiens, UniProt P11802); test: KINOMEscan; type: binding; details: 1 μM
PRKR = PRKR (Homo sapiens, UniProt P19525); test: KINOMEscan; type: binding; details: 1 μM
SGK2 = SGK2 (Homo sapiens, UniProt Q9HBY8); test: KINOMEscan; type: binding; details: 1 μM
PIM1 = PIM1 (Homo sapiens, UniProt P11309); test: KINOMEscan; type: binding; details: 1 μM
PIM2 = PIM2 (Homo sapiens, UniProt Q9P1W9); test: KINOMEscan; type: binding; details: 1 μM
ADCK3 = ADCK3 (Homo sapiens, UniProt Q8NI60); test: KINOMEscan; type: binding; details: 1 μM
Chain of ADCK3 (Q8NI60 163-647): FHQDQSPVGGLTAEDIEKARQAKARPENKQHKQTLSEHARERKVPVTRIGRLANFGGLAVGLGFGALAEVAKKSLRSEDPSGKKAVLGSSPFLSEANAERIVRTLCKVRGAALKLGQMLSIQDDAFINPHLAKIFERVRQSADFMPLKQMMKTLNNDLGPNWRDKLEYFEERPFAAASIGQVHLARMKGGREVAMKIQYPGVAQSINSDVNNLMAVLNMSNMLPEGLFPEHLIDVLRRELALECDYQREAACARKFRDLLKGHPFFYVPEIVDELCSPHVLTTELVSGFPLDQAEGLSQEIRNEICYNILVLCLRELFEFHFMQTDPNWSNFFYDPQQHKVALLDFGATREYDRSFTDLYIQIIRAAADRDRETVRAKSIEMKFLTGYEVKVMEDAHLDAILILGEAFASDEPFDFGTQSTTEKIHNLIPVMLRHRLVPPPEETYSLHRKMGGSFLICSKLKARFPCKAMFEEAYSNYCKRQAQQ

DDR1 = biological target: T3, DDR1 (Homo sapiens, UniProt Q08345); test: KINOMEscan; type: binding; details: 1 μM
T3 construct: purchased Eurofins DiscoverX Corporation

AKT1 = AKT1 (Homo sapiens, UniProt P31749); test: KINOMEscan; type: binding; details: 1 μM
MELK = biological target: T4, MELK (Homo sapiens, UniProt Q14680); test: KINOMEscan; type: binding; details: 1 μM
T4 construct: purchased Eurofins DiscoverX Corporation

[2] = biological target: RSK1(Kin.Dom.2-C-terminal) (Homo sapiens, UniProt Q15418); test: KINOMEscan; type: binding; details: 1 μM
Chain of RSK1(Kin.Dom.2-C-terminal) (Q15418 418-675 limits assumed): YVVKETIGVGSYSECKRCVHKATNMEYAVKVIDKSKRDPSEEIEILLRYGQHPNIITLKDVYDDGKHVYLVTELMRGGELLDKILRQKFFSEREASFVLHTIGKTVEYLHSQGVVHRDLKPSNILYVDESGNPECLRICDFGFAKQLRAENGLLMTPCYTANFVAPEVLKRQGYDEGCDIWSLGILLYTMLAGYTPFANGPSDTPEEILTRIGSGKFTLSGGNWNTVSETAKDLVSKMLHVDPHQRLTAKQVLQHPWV

DCAMKL2 = biological target: T5, DCAMKL2 (Homo sapiens, UniProt Q8N568); test: KINOMEscan; type: binding; details: 1 μM
T5 construct: purchased Eurofins DiscoverX Corporation
T5 sequence (Q8N568 whole entry): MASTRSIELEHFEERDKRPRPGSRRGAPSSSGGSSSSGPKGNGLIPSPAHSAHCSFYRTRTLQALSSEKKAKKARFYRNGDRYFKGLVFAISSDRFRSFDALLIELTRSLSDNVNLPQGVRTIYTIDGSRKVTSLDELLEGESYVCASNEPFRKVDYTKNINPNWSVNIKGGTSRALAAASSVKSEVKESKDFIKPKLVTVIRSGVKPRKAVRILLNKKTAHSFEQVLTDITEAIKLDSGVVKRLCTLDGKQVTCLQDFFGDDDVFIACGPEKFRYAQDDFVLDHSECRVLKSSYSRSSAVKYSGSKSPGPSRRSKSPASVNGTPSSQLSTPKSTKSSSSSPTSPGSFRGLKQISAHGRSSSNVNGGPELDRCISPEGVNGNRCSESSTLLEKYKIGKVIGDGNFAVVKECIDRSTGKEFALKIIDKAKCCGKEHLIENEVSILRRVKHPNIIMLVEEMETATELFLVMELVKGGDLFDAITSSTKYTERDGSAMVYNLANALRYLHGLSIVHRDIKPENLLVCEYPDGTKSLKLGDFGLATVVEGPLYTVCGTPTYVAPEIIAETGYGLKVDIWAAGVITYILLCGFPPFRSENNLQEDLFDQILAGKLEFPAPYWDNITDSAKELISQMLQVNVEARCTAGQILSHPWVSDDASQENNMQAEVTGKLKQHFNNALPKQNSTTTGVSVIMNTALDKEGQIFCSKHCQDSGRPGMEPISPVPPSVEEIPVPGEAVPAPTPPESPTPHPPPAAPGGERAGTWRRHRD

KIT(L576P) = biological target: T6, KIT(L576P) (Homo sapiens, UniProt P10721, L576P); test: KINOMEscan; type: binding; details: 1 μM
T6 construct: purchased Eurofins DiscoverX (KINOMEscan)
T6 sequence (P10721 26-976 L576P): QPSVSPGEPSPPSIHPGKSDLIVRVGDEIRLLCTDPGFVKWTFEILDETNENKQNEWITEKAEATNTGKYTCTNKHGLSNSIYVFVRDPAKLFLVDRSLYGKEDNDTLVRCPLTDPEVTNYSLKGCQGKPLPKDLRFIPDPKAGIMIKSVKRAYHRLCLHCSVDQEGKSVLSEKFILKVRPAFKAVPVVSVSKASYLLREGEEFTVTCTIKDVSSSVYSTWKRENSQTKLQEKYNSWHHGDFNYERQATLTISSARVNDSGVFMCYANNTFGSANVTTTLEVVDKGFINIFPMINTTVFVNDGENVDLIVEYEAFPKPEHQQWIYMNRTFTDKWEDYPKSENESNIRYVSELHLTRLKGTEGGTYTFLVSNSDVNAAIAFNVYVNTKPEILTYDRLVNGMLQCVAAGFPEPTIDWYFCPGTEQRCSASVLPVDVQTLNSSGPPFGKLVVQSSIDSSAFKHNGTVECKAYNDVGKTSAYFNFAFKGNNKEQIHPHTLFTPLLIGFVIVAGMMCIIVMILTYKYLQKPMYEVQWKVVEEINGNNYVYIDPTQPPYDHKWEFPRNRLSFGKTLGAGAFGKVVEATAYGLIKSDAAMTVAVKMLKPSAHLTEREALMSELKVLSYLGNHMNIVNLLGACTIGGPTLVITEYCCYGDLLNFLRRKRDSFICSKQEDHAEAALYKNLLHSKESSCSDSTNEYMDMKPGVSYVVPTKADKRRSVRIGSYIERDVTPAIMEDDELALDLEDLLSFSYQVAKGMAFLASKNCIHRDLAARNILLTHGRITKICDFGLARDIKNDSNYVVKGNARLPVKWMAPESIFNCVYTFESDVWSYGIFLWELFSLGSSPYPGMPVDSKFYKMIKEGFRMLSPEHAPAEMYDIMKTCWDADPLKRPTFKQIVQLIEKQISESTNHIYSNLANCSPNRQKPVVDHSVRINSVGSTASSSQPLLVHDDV

MEK2 = biological target: T7, MEK2 (Homo sapiens, UniProt P36507); test: KINOMEscan; type: binding; details: 1 μM
T7 construct: purchased Eurofins DiscoverX Corporation

MUSK = biological target: T8, MUSK (Homo sapiens, UniProt O15146); test: KINOMEscan; type: binding; details: 1 μM
T8 construct: purchased Eurofins DiscoverX Corporation

[3] = biological target: T9, ABL1(H396P)-nonphosphorylated (Homo sapiens, UniProt P00519, H396P); test: KINOMEscan; type: binding; details: 1 μM
T9 construct: purchased Eurofins DiscoverX Corporation

BUB1 = biological target: T10, BUB1 (Homo sapiens, UniProt O43683); test: KINOMEscan; type: binding; details: 1 μM
T10 construct: purchased Eurofins DiscoverX Corporation (KINOMEscan)

FGFR3 = FGFR3 (Homo sapiens, UniProt P22607); test: KINOMEscan; type: binding; details: 1 μM
TRKB = biological target: T11, TRKB (Homo sapiens, UniProt Q16620); test: KINOMEscan; type: binding; details: 1 μM
T11 construct: purchased Eurofins DiscoverX Corporation
T11 sequence (Q16620 32-822): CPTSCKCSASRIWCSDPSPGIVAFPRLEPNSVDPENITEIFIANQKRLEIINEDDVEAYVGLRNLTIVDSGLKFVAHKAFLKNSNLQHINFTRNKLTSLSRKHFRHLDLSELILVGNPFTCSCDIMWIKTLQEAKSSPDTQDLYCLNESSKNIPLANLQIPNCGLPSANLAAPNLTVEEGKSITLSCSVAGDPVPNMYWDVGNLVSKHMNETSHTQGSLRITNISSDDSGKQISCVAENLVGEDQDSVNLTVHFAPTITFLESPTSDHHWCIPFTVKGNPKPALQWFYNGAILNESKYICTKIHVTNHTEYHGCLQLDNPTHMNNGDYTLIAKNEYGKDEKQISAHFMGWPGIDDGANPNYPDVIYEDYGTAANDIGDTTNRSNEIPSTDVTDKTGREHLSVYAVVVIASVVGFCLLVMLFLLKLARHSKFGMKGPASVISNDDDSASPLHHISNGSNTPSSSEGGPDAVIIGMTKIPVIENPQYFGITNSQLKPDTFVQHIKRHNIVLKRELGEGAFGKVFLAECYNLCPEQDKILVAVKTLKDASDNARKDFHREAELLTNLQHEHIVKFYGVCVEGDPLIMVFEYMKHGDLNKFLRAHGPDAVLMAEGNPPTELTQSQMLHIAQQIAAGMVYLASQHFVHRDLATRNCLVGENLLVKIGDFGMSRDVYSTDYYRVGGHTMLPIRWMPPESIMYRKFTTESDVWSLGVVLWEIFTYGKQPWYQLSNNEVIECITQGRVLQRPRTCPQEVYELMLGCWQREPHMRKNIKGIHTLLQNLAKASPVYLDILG

TNIK = biological target: T12, TNIK (Homo sapiens, UniProt Q9UKE5); test: KINOMEscan; type: binding; details: 1 μM
T12 construct: purchased Eurofins DiscoverX Corporation

CLK3 = CLK3 (Homo sapiens, UniProt P49761); test: KINOMEscan; type: binding; details: 1 μM
MST4 = biological target: T13, MST4 (Homo sapiens, UniProt Q9P289); test: KINOMEscan; type: binding; details: 1 μM
T13 construct: purchased Eurofins DiscoverX Corporation

SGK3 = SGK3 (Homo sapiens, UniProt Q96BR1); test: KINOMEscan; type: binding; details: 1 μM
468 kinases = test: KINOMEscan selectivity score; type: binding; details: 1 μM
ROCK2 = ROCK2 (Homo sapiens, UniProt O75116); test: KINOMEscan; type: binding; details: 1 μM
BMX = biological target: T14, BMX (Homo sapiens, UniProt P51813); test: KINOMEscan; type: binding; details: 1 μM
T14 construct: purchased Eurofins DiscoverX Corporation (KINOMEscan)
T14 sequence (P51813 whole entry): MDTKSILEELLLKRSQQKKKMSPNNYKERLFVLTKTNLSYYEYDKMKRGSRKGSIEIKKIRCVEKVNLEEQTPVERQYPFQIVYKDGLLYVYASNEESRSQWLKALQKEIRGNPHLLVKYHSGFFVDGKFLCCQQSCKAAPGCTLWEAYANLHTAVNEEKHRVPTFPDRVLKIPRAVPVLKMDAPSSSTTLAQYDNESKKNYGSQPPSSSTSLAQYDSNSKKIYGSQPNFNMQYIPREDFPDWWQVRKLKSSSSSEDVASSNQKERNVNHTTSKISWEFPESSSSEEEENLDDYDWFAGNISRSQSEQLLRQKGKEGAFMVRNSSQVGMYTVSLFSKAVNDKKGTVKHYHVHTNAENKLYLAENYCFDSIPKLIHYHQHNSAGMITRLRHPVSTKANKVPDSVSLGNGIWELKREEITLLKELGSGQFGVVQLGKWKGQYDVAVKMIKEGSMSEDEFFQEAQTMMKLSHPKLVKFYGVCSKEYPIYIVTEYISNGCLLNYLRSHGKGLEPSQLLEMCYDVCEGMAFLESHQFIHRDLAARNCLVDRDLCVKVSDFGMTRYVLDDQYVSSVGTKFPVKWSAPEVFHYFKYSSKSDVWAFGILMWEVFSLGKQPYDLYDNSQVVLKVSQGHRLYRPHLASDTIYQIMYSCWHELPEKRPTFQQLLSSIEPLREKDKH

RET = RET (Homo sapiens, UniProt P07949); test: KINOMEscan; type: binding; details: 1 μM
CAMK4 = biological target: T15, CAMK4 (Homo sapiens, UniProt Q16566); test: KINOMEscan; type: binding; details: 1 μM
T15 construct: purchased Eurofins DiscoverX Corporation (KINOMEscan)

MAST1 = biological target: T16, MAST1 (Homo sapiens, UniProt Q9Y2H9); test: KINOMEscan; type: binding; details: 1 μM
T16 construct: purchased Eurofins DiscoverX Corporation

PFCDPK1(P.falciparum) = PFCDPK1(P.falciparum) (Plasmodium falciparum, UniProt P62344); test: KINOMEscan; type: binding; details: 1 μM
PDPK1 = PDPK1 (Homo sapiens, UniProt O15530); test: KINOMEscan; type: binding; details: 1 μM
BRAF = biological target: T17, BRAF (Homo sapiens, UniProt P15056); test: KINOMEscan; type: binding; details: 1 μM
T17 construct: purchased Eurofins DiscoverX Corporation (KINOMEscan)

TRKA = biological target: T18, TRKA (Homo sapiens, UniProt P04629); test: KINOMEscan; type: binding; details: 1 μM
T18 construct: purchased Eurofins DiscoverX Corporation

OSR1 = OSR1 (Homo sapiens, UniProt O95747); test: KINOMEscan; type: binding; details: 1 μM
QSK = QSK (Homo sapiens, UniProt Q9Y2K2); test: KINOMEscan; type: binding; details: 1 μM
ALK(C1156Y) = ALK(C1156Y) (Homo sapiens, UniProt Q9UM73, C1156Y); test: KINOMEscan; type: binding; details: 1 μM

In the case of `CSc1nc(-c2cccc(NC(=O)c3cccc4c3NC(=O)c3ccccc3N4)c2)c(-c2ccnc(NC(C)=O)c2)[nH]1` [Compound 2], the “Linking coefficient E” value ([1]; ATP fragment 5, allosteric fragment 10) is reported as under 1.0 M⁻¹, the “Linking coefficient E” value ([1]; ATP fragment 6, allosteric fragment 10) is reported as < 0. 59 M-1 and the activity ([1]; [Inhibitor] 1.3e-5 nM) is reported as 83.4% and 90.2% and 86.8%. The activity ([1]; [Inhibitor] 3.18e-5 nM) was 73.8% and 73.1% and 84.5%, the activity ([1]; [Inhibitor] 7.78e-5 nM) was 40.1% and 41.4% and 42.9% and the activity ([1]; [Inhibitor] 0.000190441 nM, 190.4 fM) was 19.1% and 19.2%. For the same compound, the activity ([1]; [Inhibitor] 0.000465979 nM, 466 fM) was 8.04% and 10%, the activity ([1]; [Inhibitor] 0.00114018 nM, 1.14 pM) was 5.9% and 5.75% and the activity ([1]; [Inhibitor] 0.00278983 nM, 2.79 pM) was 3.92% and 5.27%. For the same compound, the activity ([1]; [Inhibitor] 0.00682626 nM, 6.826 pM) was 3.83% and 4.05%, the activity ([1]; [Inhibitor] 0.0167028 nM, 16.7 pM) was 2.18% and 2.36% and the IC50 ([1]; Table S1, read-out: IC50, LRTM) was 0.051 to 0.064 nM and 0.051 to 0.059 nM. The IC50 ([1]; enzyme 0.02 nM, ATP 100 µM, read-out: Biochemical EGFR IC50, LRTM) was 0.059 ± 0.005 nM and the “linking coefficients” value ([1]; limits estimated from LRTM IC50 values) was 0.5 to 1.0 M⁻¹.
For `C=CC(=O)Nc1ccc(OC)c(Nc2cc(-c3[nH]c(CC)nc3-c3cccc(NC(=O)c4cccc5c4NC(=O)c4ccccc4N5)c3)ccn2)c1` [Compound 4], the POC (MERTK) was 83% of control, the POC (RET(M918T)) was 99% of control and the POC (CDK4-cyclinD3) was 49% of control. The POC (PRKR) was 87% of control, the POC (SGK2) was 83% of control and the POC (PIM1) was 94% of control. For the same compound, the POC (PIM2) was 88% of control, the POC (ADCK3) was 100% of control and the POC (DDR1) was 90% of control. The POC (AKT1) was 89% of control, the POC (MELK) was 100% of control and the POC [2] was 75% of control. For the same compound, the POC (DCAMKL2) was 100% of control, the POC (KIT(L576P)) was 84% of control and the POC (MEK2) was 100% of control. For the same compound, the POC (MUSK) was 100% of control, the POC [3] was 97% of control and the POC (BUB1) was 100% of control. The POC (FGFR3) was 94% of control, the POC (TRKB) was 100% of control and the POC (TNIK) was 33% of control. The POC (CLK3) was 74% of control, the POC (MST4) was 94% of control and the POC (SGK3) was 90% of control. The “selectivity score S(35)” value (468 kinases) was 0.084, the POC (ROCK2) was 94% of control and the POC (BMX) was 66% of control. The POC (RET) was 99% of control, the POC (CAMK4) was 99% of control and the POC (MAST1) was 100% of control. For the same compound, the POC (PFCDPK1(P.falciparum)) was 87% of control, the POC (PDPK1) was 84% of control and the POC (BRAF) was 90% of control. For the same compound, the POC (TRKA) was 77% of control, the POC (OSR1) was 89% of control and the POC (QSK) was 100% of control. The POC (ALK(C1156Y)) was 87% of control.
